Paper PMC12329525, “All-stage targeted therapy for invasive cryptococcosis through interaction between the secretory protein Cig1 and hemin” (Asian Journal of Pharmaceutical Sciences, 2025)

How the values were obtained:
BSA = molecular target: T1, BSA (Bos taurus, UniProt P02769); test: UV-vis absorption spectra (Soret shift of complex); assay type: binding; settings: PBS, 37 °C, 15 min; hemin in excess over BSA
T1 construct: gene ALB

Cig1 = molecular target: T2, Cig1 (Cryptococcus neoformans, UniProt J9VUB8); settings: PBS, 25 °C; hemin from DMSO stock
T2 construct: gene CNAG_01653
T2 sequence (J9VUB8 entry or part of it): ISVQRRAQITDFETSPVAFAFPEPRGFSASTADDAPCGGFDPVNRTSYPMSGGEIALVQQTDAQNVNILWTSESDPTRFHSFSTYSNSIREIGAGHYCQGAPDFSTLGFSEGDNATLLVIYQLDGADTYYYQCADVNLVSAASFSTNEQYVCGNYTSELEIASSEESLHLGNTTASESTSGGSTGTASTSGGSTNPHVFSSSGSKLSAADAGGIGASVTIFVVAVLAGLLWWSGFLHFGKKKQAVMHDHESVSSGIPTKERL

T1 sequence (P02769 25-607): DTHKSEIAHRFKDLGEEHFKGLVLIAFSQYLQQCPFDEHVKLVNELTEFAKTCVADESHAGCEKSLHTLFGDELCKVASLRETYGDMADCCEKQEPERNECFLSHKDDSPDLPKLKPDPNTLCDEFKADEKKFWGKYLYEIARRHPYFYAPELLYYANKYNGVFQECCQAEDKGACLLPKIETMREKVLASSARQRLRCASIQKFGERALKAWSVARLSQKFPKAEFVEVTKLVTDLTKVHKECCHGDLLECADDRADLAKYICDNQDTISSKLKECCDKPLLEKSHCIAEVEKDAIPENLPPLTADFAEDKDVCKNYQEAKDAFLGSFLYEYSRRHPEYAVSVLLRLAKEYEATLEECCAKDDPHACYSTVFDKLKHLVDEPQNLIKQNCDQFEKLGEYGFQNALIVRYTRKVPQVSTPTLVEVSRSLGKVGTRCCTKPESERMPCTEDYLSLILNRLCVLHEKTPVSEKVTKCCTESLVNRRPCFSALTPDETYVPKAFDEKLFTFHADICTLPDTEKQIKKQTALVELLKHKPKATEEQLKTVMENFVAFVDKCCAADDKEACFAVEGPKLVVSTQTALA

C=CC1=C(C)C2=Cc3c(C=C)c(C)c4[n]3[Fe]([Cl])[n]3c(c(C)c(CCC(=O)O)c3=CC3=NC(=C4)C(C)=C3CCC(=O)O)=CC1=N2 [hemin]
UV-vis absorption spectra (Soret shift of complex) (BSA): Hemin@BSA exhibited a red shift in its absorption peak | Kd (Cig1): 9.81×10^‒7 mol/l
